Columns and labels:
Assay type in all cases: in vivo, mice (C57BL/6)
[1] = tested on: animal model of insulin-resistant diabetes; test: Blood biochemistry, automated analyzer, at end of observation; settings: for ALT, Mean / T-CHO, Mean / AST, Mean: 12 weeks, blood
Experimental: (§1) STZ (Sigma-aldrich, S0130, 40 mg/kg b.w., in 0.1 M citrate buffer pH 4.5) was intraperitoneally administered to 9-week-old male mice (C57BL/6) once/1 day for 5 days to perform a first disease induction. After 7 weeks of the first induction, a second induction was performed using the same method as the first induction. For 5 days of an STZ administration period for the first induction, 10% sucrose was administered as drinking water. In addition, after 14 days of the second administration, blood sugar was confirmed to confirm the induction rate, and the induced animals were separated into groups. Experimental substances (R)-4-{(R)-1-[7-(3,4,5-trimethoxy-phenyl)-[1,6] naphthyridine-5-yloxy]-ethyl}pyrrolidine-2-one (BI-1002494) and cromolyn (OC-101) were administered orally into the stomach at 10 mL/kg using an oral administration syringe (sonde) before 16:00 daily for 12 weeks at a frequency of 7 days/week at doses shown in Table 1 below, respectively, and dexamethasone was orally administered as a positive control substance.
(§2) After the observation period for mice of each group in Example 1 was terminated, all surviving animals were fasted in the same manner as when measuring blood sugar, and then anesthetized by inhaling isoflurane, and blood was collected from the abdominal vena cava through laparotomy. After the blood collection was completed, the veins and arteries were cut under anesthesia and exsanguinated. The collected blood was left at room temperature for 30 minutes or more and then centrifuged at 3,000 rpm for 20 minutes. Thereafter, glucose, blood urea nitrogen (BUN), and creatinine were analyzed using an automated blood biochemistry analyzer (Hitachi 3100, Hitachi Co. Ltd., Japan). Indoxyl sulfate (a substance that was mainly produced in the intestines to cause kidney damage, and a substance that caused end-stage renal failure by advancing kidney function damage in patients with renal failure during hemodialysis) was analyzed using LC MS/MS. In addition, blood insulin was analyzed according to a method represented by a commercial Mouse Insulin ELISA KIT (#AKRIN-011T, Sibayagi Co. Ltd., Japan).

[2] = tested on: animal model of insulin-resistant diabetes; test: Blood indoxyl sulfate by LC MS/MS; settings: 12 weeks
Experimental: as §1, §2

[3] = tested on: animal model of insulin-resistant diabetes; test: Histopathological change of liver, kidney and pancreas (H&E); settings: for Kidney Medullar apoptosis / Kidney Medullar mineralization / Kidney NHL / Kidney bowman's capsule hyperplasia / Kidney pappillary mineralization / Liver Apoptosis / Liver Cytoplasmic glycogen / Liver Eosinophlic focus of cellular alteration / Liver Mononuclear cell infiltrate / Liver NHL / Pancrease Apoptosis / Pancrease NHL / Pancrease islet degeneration / Pancrease islet hypertrophy / Pancrease islet, mononuclear cell infillitrate: count in group of 10 animals
Experimental: as §1
At the end of the observation period, the mice in each group of Example 1 were confirmed to be dead, and the liver, kidney, and pancreas were extracted and fixed with 10% neutral buffered formalin (NBF) in at least 20 times the tissue volume. The fixed tissue was sectioned to a thickness of approximately 4 mm and then produced into a paraffin block through general tissue processing and embedding processes. Thereafter, the tissue was sectioned to a thickness of 4 μm using a rotary microtome, and then H&E staining was performed, and histopathological changes were observed.

[4] = administered groups 12.5-50 mg/kg, Table 8 and FIG. 2

`COc1cc(-c2cc3ncccc3c(O[C@H](C)[C@H]3CNC(=O)C3)n2)cc(OC)c1OC` [BI-1002494, (R)-4-{(R)-1-[7-(3,4,5-trimethoxy-phenyl)-[1,6]naphthyridine-5-yloxy]-ethyl}pyrrolidine-2-one] was tested, and the “ALT, Mean” value ([1]; 12.5 mg/kg/day oral) was 45.7 L⁻¹, the “T-CHO, Mean” value ([1]; 12.5 mg/kg/day oral) was 151.6 dL⁻¹ and the “ALT, Mean” value ([1]; 25 mg/kg/day oral) was 30.9 L⁻¹. For the same compound, the “AST, Mean” value ([1]; 25 mg/kg/day oral) was 76.8 L⁻¹, the “T-CHO, Mean” value ([1]; 25 mg/kg/day oral) was 125.0 dL⁻¹ and the “ALT, Mean” value ([1]; 50 mg/kg/day oral) was 45.8 L⁻¹. The “AST, Mean” value ([1]; 50 mg/kg/day oral) was 83.4 L⁻¹, the “T-CHO, Mean” value ([1]; 50 mg/kg/day oral) was 138.7 dL⁻¹ and the “dose dependence of GLU reduction” value ([1]; 12.5, 25, 50 mg/kg) was “clear dose dependence”. The “blood glucose, summary” value ([1]; after induction of diabetic disease, 12.5-50 mg/kg) was “decreased in a dose-dependent manner”, the “GLU, statistical comparison” value ([1]; all administered groups (12.5, 25, 50 mg/kg)) was “statistically significantly reduced” and the “Indoxyl sulfate, Mean” value ([2]; 12.5 mg/kg/day oral) was 2.2 µg/mL. The “Indoxyl sulfate, Mean” value ([2]; 25 mg/kg/day oral) was 2.2 µg/mL, the “Indoxyl sulfate, Mean” value ([2]; 50 mg/kg/day oral) was 1.9 µg/mL and the “Kidney Medullar apoptosis” value ([3]; 12.5 mg/kg (G4)) was 3. The “Kidney Medullar mineralization” value ([3]; 12.5 mg/kg (G4)) was 0, the “Kidney NHL” value ([3]; 12.5 mg/kg (G4)) was 7 and the “Kidney bowman's capsule hyperplasia” value ([3]; 12.5 mg/kg (G4)) was 0. The Kidney pappillary mineralization ([3]; 12.5 mg/kg (G4)) was 0, the “Liver Apoptosis” value ([3]; 12.5 mg/kg (G4)) was 2 and the “Liver Cytoplasmic glycogen” value ([3]; 12.5 mg/kg (G4)) was 1. The “Liver Eosinophlic focus of cellular alteration” value (“Liver Eosinophlic focus” for short) ([3]; 12.5 mg/kg (G4)) was 0, the “Liver Mononuclear cell infiltrate” value ([3]; 12.5 mg/kg (G4)) was 1 and the “Liver NHL” value ([3]; 12.5 mg/kg (G4)) was 7. For the same compound, the “Pancrease Apoptosis” value ([3]; 12.5 mg/kg (G4)) was 1, the “Pancrease NHL” value ([3]; 12.5 mg/kg (G4)) was 5 and the Pancrease islet degeneration ([3]; 12.5 mg/kg (G4)) was 2. The Pancrease islet hypertrophy ([3]; 12.5 mg/kg (G4)) was 1, the “Pancrease islet, mononuclear cell infillitrate” value ([3]; 12.5 mg/kg (G4)) was 1 and the “Kidney Medullar apoptosis” value ([3]; 25 mg/kg (G5)) was 2. For the same compound, the “Kidney Medullar mineralization” value ([3]; 25 mg/kg (G5)) was 1, the “Kidney NHL” value ([3]; 25 mg/kg (G5)) was 7 and the “Kidney bowman's capsule hyperplasia” value ([3]; 25 mg/kg (G5)) was 0. For the same compound, the Kidney pappillary mineralization ([3]; 25 mg/kg (G5)) was 0, the “Liver Apoptosis” value ([3]; 25 mg/kg (G5)) was 3 and the “Liver Cytoplasmic glycogen” value ([3]; 25 mg/kg (G5)) was 0. For the same compound, the “Liver Eosinophlic focus” value ([3]; 25 mg/kg (G5)) was 0, the “Liver Mononuclear cell infiltrate” value ([3]; 25 mg/kg (G5)) was 2 and the “Liver NHL” value ([3]; 25 mg/kg (G5)) was 7. The “Pancrease Apoptosis” value ([3]; 25 mg/kg (G5)) was 0, the “Pancrease NHL” value ([3]; 25 mg/kg (G5)) was 8 and the Pancrease islet degeneration ([3]; 25 mg/kg (G5)) was 1. For the same compound, the Pancrease islet hypertrophy ([3]; 25 mg/kg (G5)) was 1, the “Pancrease islet, mononuclear cell infillitrate” value ([3]; 25 mg/kg (G5)) was 0 and the “Kidney Medullar apoptosis” value ([3]; 50 mg/kg (G6, G7)) was 1. The “Kidney Medullar mineralization” value ([3]; 50 mg/kg (G6, G7)) was 2, the “Kidney NHL” value ([3]; 50 mg/kg (G6, G7)) was 7 and the “Kidney bowman's capsule hyperplasia” value ([3]; 50 mg/kg (G6, G7)) was 0. The Kidney pappillary mineralization ([3]; 50 mg/kg (G6, G7)) was 0, the “Liver Apoptosis” value ([3]; 50 mg/kg (G6, G7)) was 2 and the “Liver Cytoplasmic glycogen” value ([3]; 50 mg/kg (G6, G7)) was 0. The “Liver Eosinophlic focus” value ([3]; 50 mg/kg (G6, G7)) was 0, the “Liver Mononuclear cell infiltrate” value ([3]; 50 mg/kg (G6, G7)) was 1 and the “Liver NHL” value ([3]; 50 mg/kg (G6, G7)) was 8. The “Pancrease Apoptosis” value ([3]; 50 mg/kg (G6, G7)) was 0, the “Pancrease NHL” value ([3]; 50 mg/kg (G6, G7)) was 7 and the Pancrease islet degeneration ([3]; 50 mg/kg (G6, G7)) was 1. For the same compound, the Pancrease islet hypertrophy ([3]; 50 mg/kg (G6, G7)) was 2, the “Pancrease islet, mononuclear cell infillitrate” value ([3]; 50 mg/kg (G6, G7)) was 0 and the “cytoplasmic glycogen in the liver” value [3, 4] was “reduced in the liver”. For the same compound, the “medullar apoptosis in the kidney” value [3, 4] was “reduced in the kidney in a dose-dependent manner”.

Source: US20240207236A1, “COMPOUND FOR PREVENTING OR TREATING DIABETES” (ONCOCROSS CO., LTD., priority 2021, published 2024)
